Data published in patent publication EP4640223A1, “PHARMACEUTICAL COMPOSITION FOR PREVENTION OR TREATMENT OF CARDIOVASCULAR DISEASE, COMPRISING SODIUM-GLUCOSE COTRANSPORTER-2 INHIBITOR AND ANGIOTENSIN II RECEPTOR BLOCKER” (THPharm Corp., priority 2022, dated 2024).
Where two headings read alike, the source gives them in different places. One block for each molecule: values may come before it.

Columns and labels:
[1] = tested on: angiotensin converting enzyme (ACE); experiment: ACE mRNA expression (RT-PCR, normalized to GAPDH) in LPS inflammation-induced H9c2 cells; assay type: cell-based, rat
Description: Specifically, LPS inflammation-induced H9c2 cells in Experimental Example 1-2 were treated with 10 or 25 µM Telmisartan and 10 or 50 µM Olmesartan, and then treated with 200 µl of chloroform together with 1 ml of TRIZol (Sigma, USA), gently mixed, and separated for 10 minutes, and then centrifuged at 4°C and 10,000 rpm for 10 minutes. After centrifugation, only the supernatant from the tube was taken and transferred to a new sterile tube, and the supernatant was treated with 500 µl of isopropanol to precipitate RNA. The precipitated RNA was centrifuged at 4°C, 10,000 rpm for 10 minutes, and then the supernatant except for the pellets in the tube was fully removed, and the RNA pellets were treated with 500 µl of 75% ethyl alcohol and thoroughly washed. The washed pellets were centrifuged at 4°C, 10,000 rpm for 5 minutes, and then the supernatant except the pellets was fully removed. The tube containing the pellets from which the supernatant had been cleanly removed was treated with diethyl pyrocarbonate (DEPC)-water and stored at - 80°C for use in an RT-PCR experiment.
RT-PCR was performed by synthesizing cDNA from mRNA using an RT-PCR kit containing DNA polymerase, buffer, dNTP, and tracking dye, and then using ACE primers in Table 1 under the conditions in Table 2 for 35 cycles. The PCR products were electrophoresed on a […] agarose gel, identified using a UV transilluminator, and expressed as normalized to GAPDH for quantitative comparison.
In order to confirm the effect of each combination or single substance on the mRNA expression of ACE, the experimental samples in Table 3 were treated to H9c2 cells induced with LPS inflammation in Experimental Example 1-2, respectively, and then the mRNA expression of ACE was evaluated in the same manner as in Experimental Example 1-3.

[2] = Drug-drug compatibility test under accelerated stability conditions; assay type: physicochemical; settings: for flexible substance / content (ARB) / content (SGLT-2 inhibitor): HPLC; for content (ARB): first figure of the cell; for property: color, clumping, etc.; for content (SGLT-2 inhibitor): second figure of the cell
Description: Specifically, after storing a mixture of ARB and SGLT-2 inhibitor for 2 weeks under accelerated stability test conditions (40 ± 2°C/75 ± 5% relative humidity), changes in the contents of each ingredient and flexible substance and changes in properties (color, clumping, etc.) were analyzed. Olmesartan, Valsartan, and Telmisartan were used as ARBs, and Empagliflozin, Dapagliflozin (Dapagliflozin propanediol monohydrate), and Canagliflozin were used as SGLT-2 inhibitors.

[3] = 4-week repeated oral administration toxicity; assay type: in vivo, Sprague-Dawley rats; settings: daily for 4 weeks
Description: Specifically, groups were configured in the same manner as in Experimental Example 4-1, and the combinations were administered orally daily for 4 weeks to 5 male and 5 female 6-week-old Sprague-Dawley rats per group. During the test, general symptom observation, blood test, and body weight measurement were performed, and after the observation period ended, the rats were euthanized and autopsied.

[4] = repeated oral, steady state
[5] = tested on: MDCK cells; experiment: Cell survival rate (MTT) in MDCK cells; assay type: cell-based; settings: after 24 hours and 48 hours, up to a concentration of 25 µM
Description: (§1) Specifically, A549 cells were obtained from the Korean Cell Line Bank (KCLB) and subcultured using a RPMI-1640 medium supplemented with 10% fetal bovine serum (FBS) and 1% Penicillin, and MDCK cells were obtained from ATCC and subcultured using a DMEM medium supplemented with 10% FBS. 200 µl each of the A549 cells and MDCK cells incubated in an incubator under 37°C and 5% CO2 conditions were dispensed at 2 × 10^4 cells/well in a 96-well plate, and then a control group was treated with 100 µl of the medium, and experimental groups were treated with 1.25, 25, 50, and 100 µM of Telmisartan or Olmesartan, respectively. After 24 hours and 48 hours, all of the wells were treated with 50 µl each of a 2 mg/ml MTT reagent and incubated in an incubator for 3 hours, and then each well was added with 500 µl of DMSO, wrapped in foil, stirred for 30 minutes at room temperature, and the absorbance was measured at 570 nm to obtain the cell survival rate.

[6] = tested on: angiotensin converting enzyme (ACE); experiment: ACE protein expression (Human ACE ELISA) in LPS inflammation-induced H9c2 cells; assay type: cell-based, rat
Description: Specifically, H9c2 cells as a human cardiac cell line were obtained and used from the Korea Cell Line Bank (KCLB 40071, Korea) and incubated and prepared in a DMEM medium supplemented with 10% FBS and 1% antibiotic-antimycotic (10 units/ml penicillin, 100 µg/ml streptomycin, 0.25 µg/ml amphotericin) under 37°C and 5% CO2 conditions.
To confirm the effect on ACE activity, the prepared H9c2 cells were treated with 2.5 µg/ml of Lipopolysaccharide (LPS), which was 2.5 times more than the amount used in conventional inflammation-related experiments, to induce inflammation, thereby setting the optimized conditions for confirming ACE expression. […]
To perform the ELISA assay, 10,000 pg/ml, 5,000 pg/ml, 2,500 pg/ml, 1,250 pg/ml, 625 pg/ml, 312 pg/ml, and 156 pg/ml of Human ACE standard solutions and a standard dilution buffer were added by 0.1 ml to each well of an antibody-coated 96-well plate. […] Thereafter, each well was added with 90 µl of the prepared TMB solution, incubated for 20 to 25 minutes in a dark room at 37°C, and then treated with each 0.1 ml of the prepared TMB stop solution to stop an ACE ELISA reaction, and the OD absorbance at 450 nm was read in a microplate reader within 30 minutes, and the relative OD450 was derived using the following Equation. […]

[7] = tested on: A549 cells; experiment: Cell survival rate (MTT) in A549 cells; assay type: cell-based; settings: after 24 hours and 48 hours, up to a concentration of 25 µM
Description: as §1

[8] = alone, low-concentration administration groups of 2.5 µM to 10 µM
[9] = experimental samples at the concentrations of Table 3
[10] = Acceleration 1 week, 40 ± 2°C/75 ± 5% relative humidity
[11] = Acceleration 2 week, 40 ± 2°C/75 ± 5% relative humidity

Structure (SMILES): OC[C@H]1O[C@@H](c2ccc(Cl)c(Cc3ccc(O[C@H]4CCOC4)cc3)c2)[C@H](O)[C@@H](O)[C@@H]1O [Empagliflozin, (1S)-1,5-anhydro-1-C-[4-chloro-3-[[4-[[(3S)-tetrahydro-3-furanyl]oxy]phenyl]methyl]phenyl]-D-glucitol]
mRNA expression of ACE [1, 8]: did not decrease to a normal level

Structure (SMILES): CCCc1nc2c(C)cc(-c3nc4ccccc4n3C)cc2n1Cc1ccc(-c2ccccc2C(=O)O)cc1 [Comparative Example 14, Telmisartan]
mRNA expression of ACE [1, 9]: decrease below the normal level

flexible substance [2, 10]: 0.1 or less
content (ARB) [2, 10]: 100.1%
property [2, 10]: suitable
flexible substance [2, 11]: 0.1 or less
content (ARB) [2, 11]: 100%
property [2, 11]: suitable
flexible substance ([2]; Initial): 0.1 or less
content (ARB) ([2]; Initial): 100.1%
property ([2]; Initial): suitable
Structure (SMILES): CCCc1nc2c(C)cc(-c3nc4ccccc4n3C)cc2n1Cc1ccc(-c2ccccc2C(=O)O)cc1 [Com. Ex. 16, Telmisartan]

flexible substance [2, 10]: 1.0 or less
content (SGLT-2 inhibitor) [2, 10]: 95.2%
property [2, 10]: unsuitable
flexible substance [2, 11]: 5.0 or more
content (SGLT-2 inhibitor) [2, 11]: 89.2%
property [2, 11]: unsuitable
flexible substance ([2]; Initial): 0.1 or less
content (SGLT-2 inhibitor) ([2]; Initial): 99.5%
property ([2]; Initial): suitable
Structure (SMILES): Cc1ccc([C@@H]2O[C@H](CO)[C@@H](O)[C@H](O)[C@H]2O)cc1Cc1ccc(-c2ccc(F)cc2)s1 [Com. Ex. 21, Canagliflozin]

flexible substance [2, 10]: 1.0 or less
content (SGLT-2 inhibitor) [2, 10]: 97.3%
property [2, 10]: suitable
flexible substance [2, 11]: 1.0 or more
content (SGLT-2 inhibitor) [2, 11]: 95.1%
property [2, 11]: suitable
flexible substance ([2]; Initial): 0.1 or less
content (SGLT-2 inhibitor) ([2]; Initial): 99.9%
property ([2]; Initial): suitable
Structure (SMILES): OC[C@H]1O[C@@H](c2ccc(Cl)c(Cc3ccc(O[C@H]4CCOC4)cc3)c2)[C@H](O)[C@@H](O)[C@@H]1O [Com. Ex. 17, Empagliflozin]

Cmax T/R ratio ([4]; Telmisartan 80 mg in the presence of Dapagliflozin 10 mg, 90% confidence interval 0.99 to 1.43): 1.19
AUC T/R ratio ([4]; Telmisartan 80 mg in the presence of Dapagliflozin 10 mg, 90% confidence interval 1.01 to 1.18): 1.09
Structure (SMILES): CCCc1nc2c(C)cc(-c3nc4ccccc4n3C)cc2n1Cc1ccc(-c2ccccc2C(=O)O)cc1 [Telmisartan, 4'-[(1,4'-dimethyl-2'-propyl[2,6'-bi-1H-benzimidazol]-1'-yl)methyl][1,1'-biphenyl]-2-carboxylic acid]
body weight measurement [3]: tendency for inhibiting weight gain
cell survival rate [5]: no effect
ACE expression inhibition effect ([6]; 25 µM treatment group): the best
ACE expression inhibition effect ([6]; all treatment concentrations (10, 25, 50 µM), comparison with Olmesartan): superior to that of Olmesartan
mRNA expression ([1]; ACE mRNA, 25 µM treatment group): mostly inhibited
mRNA expression inhibition effect ([1]; ACE mRNA, all treatment concentrations (Telmisartan 10 or 25 µM, Olmesartan 10 or 50 µM)): superior to that of Olmesartan
mRNA expression of ACE [1, 8]: did not decrease to a normal level
cell survival rate [7]: no effect

Structure (SMILES): CCCc1nc(C(C)(C)O)c(C(=O)O)n1Cc1ccc(-c2ccccc2-c2nnn[nH]2)cc1 [Olmesartan]
cell survival rate [5]: no effect
cell survival rate [7]: no effect

flexible substance [2, 10]: 0.1 or more
content (ARB) [2, 10]: 99.4%
property [2, 10]: suitable
flexible substance [2, 11]: 0.1 or more
content (ARB) [2, 11]: 99.2%
property [2, 11]: suitable
flexible substance ([2]; Initial): 0.1 or less
content (ARB) ([2]; Initial): 99.7%
property ([2]; Initial): suitable
Structure (SMILES): CCCCC(=O)N(Cc1ccc(-c2ccccc2-c2nnn[nH]2)cc1)[C@H](C(=O)O)C(C)C [Com. Ex. 20, Valsartan]

Cmax T/R ratio ([4]; Dapagliflozin 10 mg in the presence of Telmisartan 80 mg, 90% confidence interval 0.93 to1.12): 1.02
AUC T/R ratio ([4]; Dapagliflozin 10 mg in the presence of Telmisartan 80 mg, 90% confidence interval 0.97 to 1.03): 1.00
Structure (SMILES): CCOc1ccc(Cc2cc([C@@H]3O[C@H](CO)[C@@H](O)[C@H](O)[C@H]3O)ccc2Cl)cc1 [Dapagliflozin, (1S)-1,5-anhydro-1-C-{4-chloro-3-[(4-ethoxyphenyl)methyl]phenyl}-D-glucitol]
GLU ([3]; blood test): decreased
mRNA expression of ACE [1, 8]: did not decrease to a normal level

Structure (SMILES): OC[C@H]1O[C@@H](c2ccc(Cl)c(Cc3ccc(O[C@H]4CCOC4)cc3)c2)[C@H](O)[C@@H](O)[C@@H]1O [Comparative Example 8, Empagliflozin]
mRNA expression of ACE [1, 9]: decrease below the normal level
